Experimental data reported in the supplement of paper PMC10307832.

Columns and labels:
Experiment in all cases: relative viability (nuclei count vs DMSO), 5 days (fraction); higher = more cells survive
[1] = test system: NCI-H1792
Summary of the method: (§1)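 The day after seeding in 1536-well plates, lung cancer cell lines were treated by pin tool with a single drug, or with a fixed anchor-drug dose together with five library-drug doses (not always all listed) in √10 steps. After 5 days, a combined fix-and-stain solution (final 0.05% Triton X-100, 1% formaldehyde, 1 ug/ml Hoechst) was added. Nuclei counted on 4× images gave relative viability as treated counts over vehicle counts, reported as the median of duplicate plates.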

[2] = test system: NCI-H1734
Summary of the method: as §1

[3] = test system: COR-L23
Summary of the method: as §1

[4] = test system: COR-L 105
Summary of the method: as §1

[5] = test system: NCI-H358
Summary of the method: as §1

[6] = test system: NCI-H1793
Summary of the method: as §1

[7] = test system: SK-MES-1
Summary of the method: as §1

[8] = test system: NCI-H1993
Summary of the method: as §1

[9] = test system: NCI-H838
Summary of the method: as §1

[10] = test system: HOP-62
Summary of the method: as §1

[11] = test system: NCI-H2347
Summary of the method: as §1

[12] = test system: NCI-H1755
Summary of the method: as §1

[13] = test system: NCI-H1395
Summary of the method: as §1

[14] = test system: NCI-H2170
Summary of the method: as §1

[15] = test system: UMC-11
Summary of the method: as §1

[16] = test system: NCI-H647
Summary of the method: as §1

[17] = test system: NCI-H2009
Summary of the method: as §1

[18] = test system: HCC-15
Summary of the method: as §1

[19] = test system: NCI-H522
Summary of the method: as §1

[20] = test system: HARA
Summary of the method: as §1

[21] = test system: NCI-H1355
Summary of the method: as §1

## O=c1cc(-c2cccc3c2Sc2ccccc2S3)oc(N2CCOCC2)c1 + Nc1ncn([C@H]2C[C@H](O)[C@@H](CO)O2)c(=O)n1 [Decitabine] (partner 2 µM)
[1]; first compound 0.08 µM
  relative viability: 0.531
[1]; first compound 0.253 µM
  relative viability: 0.828
[1]; first compound 0.8 µM
  relative viability: 0.45
[1]; first compound 2.53 µM
  relative viability: 0.723
[1]; first compound 8 µM
  relative viability: 0.575
[2]; first compound 0.08 µM
  relative viability: 0.452
[2]; first compound 0.253 µM
  relative viability: 0.574
[2]; first compound 0.8 µM
  relative viability: 0.528
[2]; first compound 8 µM
  relative viability: 0.512
[3]; first compound 0.08 µM
  relative viability: 0.429
[3]; first compound 0.253 µM
  relative viability: 0.513
[3]; first compound 0.8 µM
  relative viability: 0.386
[3]; first compound 2.53 µM
  relative viability: 0.508
[3]; first compound 8 µM
  relative viability: 0.588
[4]; first compound 0.08 µM
  relative viability: 0.603
[4]; first compound 0.253 µM
  relative viability: 0.568
[4]; first compound 0.8 µM
  relative viability: 0.583
[4]; first compound 2.53 µM
  relative viability: 0.612
[4]; first compound 8 µM
  relative viability: 0.74
[5]; first compound 0.08 µM
  relative viability: 0.199
[5]; first compound 0.253 µM
  relative viability: 0.205
[5]; first compound 0.8 µM
  relative viability: 0.2
[5]; first compound 2.53 µM
  relative viability: 0.25
[5]; first compound 8 µM
  relative viability: 0.214
[6]; first compound 0.08 µM
  relative viability: 0.536
[6]; first compound 0.253 µM
  relative viability: 0.614
[6]; first compound 0.8 µM
  relative viability: 0.478
[6]; first compound 2.53 µM
  relative viability: 0.487
[6]; first compound 8 µM
  relative viability: 0.476
[7]; first compound 0.08 µM
  relative viability: 0.337
[7]; first compound 0.253 µM
  relative viability: 0.406
[7]; first compound 0.8 µM
  relative viability: 0.352
[7]; first compound 2.53 µM
  relative viability: 0.458
[7]; first compound 8 µM
  relative viability: 0.375
[8]; first compound 0.08 µM
  relative viability: 0.593
[8]; first compound 0.253 µM
  relative viability: 0.61
[8]; first compound 0.8 µM
  relative viability: 0.467
[8]; first compound 2.53 µM
  relative viability: 0.586
[8]; first compound 8 µM
  relative viability: 0.577
[9]; first compound 0.08 µM
  relative viability: 0.471
[9]; first compound 0.253 µM
  relative viability: 0.519
[9]; first compound 0.8 µM
  relative viability: 0.457
[9]; first compound 2.53 µM
  relative viability: 0.452
[9]; first compound 8 µM
  relative viability: 0.497
[10]; first compound 0.08 µM
  relative viability: 0.206
[10]; first compound 0.253 µM
  relative viability: 0.221
[10]; first compound 0.8 µM
  relative viability: 0.187
[10]; first compound 2.53 µM
  relative viability: 0.228
[10]; first compound 8 µM
  relative viability: 0.234
[11]; first compound 0.08 µM
  relative viability: 0.606
[11]; first compound 0.253 µM
  relative viability: 0.663
[11]; first compound 0.8 µM
  relative viability: 0.627
[11]; first compound 2.53 µM
  relative viability: 0.616
[11]; first compound 8 µM
  relative viability: 0.629
[12]; first compound 0.08 µM
  relative viability: 0.716
[12]; first compound 0.253 µM
  relative viability: 0.792
[12]; first compound 0.8 µM
  relative viability: 0.762
[12]; first compound 2.53 µM
  relative viability: 0.688
[12]; first compound 8 µM
  relative viability: 0.79
[13]; first compound 0.08 µM
  relative viability: 0.711
[13]; first compound 0.253 µM
  relative viability: 0.825
[13]; first compound 0.8 µM
  relative viability: 0.736
[13]; first compound 2.53 µM
  relative viability: 0.718
[13]; first compound 8 µM
  relative viability: 0.763
[14]; first compound 0.08 µM
  relative viability: 0.439
[14]; first compound 0.253 µM
  relative viability: 0.524
[14]; first compound 0.8 µM
  relative viability: 0.48
[14]; first compound 2.53 µM
  relative viability: 0.424
[14]; first compound 8 µM
  relative viability: 0.465
[15]; first compound 0.08 µM
  relative viability: 0.599
[15]; first compound 0.253 µM
  relative viability: 0.567
[15]; first compound 0.8 µM
  relative viability: 0.585
[15]; first compound 2.53 µM
  relative viability: 0.613
[15]; first compound 8 µM
  relative viability: 0.712
[16]; first compound 0.08 µM
  relative viability: 0.428
[16]; first compound 0.253 µM
  relative viability: 0.534
[16]; first compound 0.8 µM
  relative viability: 0.414
[16]; first compound 2.53 µM
  relative viability: 0.403
[16]; first compound 8 µM
  relative viability: 0.45
[17]; first compound 0.08 µM
  relative viability: 0.375
[17]; first compound 0.253 µM
  relative viability: 0.358
[17]; first compound 0.8 µM
  relative viability: 0.38
[17]; first compound 2.53 µM
  relative viability: 0.348
[17]; first compound 8 µM
  relative viability: 0.343
[18]; first compound 0.08 µM
  relative viability: 0.677
[18]; first compound 0.253 µM
  relative viability: 0.807
[18]; first compound 0.8 µM
  relative viability: 0.64
[18]; first compound 2.53 µM
  relative viability: 0.589
[18]; first compound 8 µM
  relative viability: 0.579
[19]; first compound 0.08 µM
  relative viability: 0.693
[19]; first compound 0.253 µM
  relative viability: 0.743
[19]; first compound 0.8 µM
  relative viability: 0.689
[19]; first compound 2.53 µM
  relative viability: 0.66
[19]; first compound 8 µM
  relative viability: 0.796
[20]; first compound 0.08 µM
  relative viability: 0.634
[20]; first compound 0.253 µM
  relative viability: 0.52
[20]; first compound 0.8 µM
  relative viability: 0.483
[20]; first compound 2.53 µM
  relative viability: 0.555
[20]; first compound 8 µM
  relative viability: 0.49
[21]; first compound 0.08 µM
  relative viability: 0.374
[21]; first compound 0.253 µM
  relative viability: 0.382
[21]; first compound 0.8 µM
  relative viability: 0.342
[21]; first compound 2.53 µM
  relative viability: 0.373
[21]; first compound 8 µM
  relative viability: 0.331
